Earlier results as cited in patent US5169665A, “Tris-hydroxymethyl alkane esters as low calorie fat mimetics” (Nabisco, Inc., priority 1990, dated 1992).

Assays:
pancreatic lipase = settings: quoted from Minich, col. 4
[1] = rats fed ad libitum, versus control animals on a normal diet

For `CCCCCCCC(=O)OCC(COC(=O)CCCCCCC)(COC(=O)CCCCCCC)COC(=O)CCCCCCC` [pentaerythritol tetracaprylate], the “hydrolysis by pancreatic lipase” value (pancreatic lipase) is listed as “not attacked, hydrolyzed, by the enzyme pancreatic lipase” and the food consumption [1] is listed as “consumed more than control animals on a normal diet”.
